Measured values taken from PMC6014988, “Precision therapeutic targeting of human cancer cell motility” (Nature Communications, 2018).

Assays:
200 different kinases = assay: Kinex kinase assay system; assay type: biochemical, human; conditions: 1 and 10 μM; 10 μM interfered with readout
Text: There were two initial false positives (for a false positive rate of 0.4%), that were subsequently found to be negative in a dedicated follow up analysis. Specific and important negative findings include MKK4, p38 MAPK (α, β, γ and δ […]
by competing for phospho-acceptor binding.
Kinase assay system #2. The Kinex™ kinase assay system (Kinexus Proteomics Company).
This platform uses recombinant human protein kinases expressed in an insect expression system, thus allowing an avenue for post-translational modification. Also, this platform measures inhibition of ATP binding. This platform putatively measured 200 different kinases, and we […]
tested KBU2046 at 1 and 10 μM. […] There were two […]
important technical issues. First, at 10 μM KBU2046 interfered with the colorimetric-based […]
However, while considering the above factors, this screen was informative for a number of […]
function by competing for ATP binding in the active site.
Kinase assay system #3. KinaseProfiler™ and PhosphataseProfiler™ assay platforms (Millipore). This platform is radiometric-based (considered gold standard). It measures competition with respect to ATP for kinases and substrate protein for phosphatases. Most proteins were expressed via an insect-based system, and it evaluates a panel of 284 kinases and 20 phosphatases. There were two initial false positives, for a false positive rate of 0.7%, but both […]

CK2 = CK2 in vitro kinase assay; assay type: biochemical; conditions: in the presence of CDC37
Text: CK2 activity. […] If they haven’t, I […]
affected by KBU2046. Specifically, because of CK2’s known link to S226 we likewise suspected that it could be involved in the mechanism of action. CK2 was indeed included in the LUMIER assay (see
Fig. 6 and Supplementary Fig. 19). We used the LUMIER assay to evaluate whether KBU2046 was altering the binding of client protein kinases to HSP90β/CDC37 heterocomplexes in intact cells, and thereby evaluated hundreds of client protein kinases. In this manner, we observed that KBU2046 did […]
known mechanistic link, we also utilized our in vitro system to interrogate purified CK2 and specifically […]
below, and if requested, we are happy to insert these otherwise negative findings into supplementary […]
CK2 in vitro kinase assay. As described in Figs 6f and g, the ability of recombinant CK2 to phosphorylate serine 226 on HSP90β, in the presence of CDC37, was evaluated +/- KBU2046 (46). Reaction time in minutes
(Mins) is denoted. KBU2046 had no effect upon serine 226 phosphorylation.
12. On top of the 8th page of the Results (where the authors discuss data in Fig. 5b-d and in […]
hydrogen bond formation with Glu33 of Hsp90beta to create formation of a new pocket into which the drug binds. […]
Additional comment 1. Figure 4c: if the data are expressed as %VC, should not the VC bar be set at […]

CDC37 = biological target: T1, CDC37 (Homo sapiens, UniProt Q16543); assay: Biophysical binding assays and DARTS, isolated CDC37; conditions: ITC, thermal shift, biolayer interferometry, dynamic light scattering, DARTS
T1 construct: made in house; host or cells: BL-21 DE-3 E. coli
Protocol: Fluorescent thermal shift, isothermal titration calorimetry, and biolayer interferometry assays[46] were all performed as described by us using MEK4EE (37-399, S257E, T261E) cloned into pMCSG7 and KRX Competent E. coli cells (Promega Inc.) and above denoted full-length HSP90B and CDC37 vectors and Rosetta BL-21 and BL-21 DE-3 competent E. coli cells, respectively. DARTS assays were conducted as described, using equimolar amounts of CDC37 and HSP90β, thermolysin digestion, and silver stain visualization (ProteoSilver Silver Stain Kit, Sigma-Aldrich).
Supplementary Figure 14. […] Studies used purified […]
recombinant HSP90β or CDC37. Fluorescent thermal shift 5, isothermal titration calorimetry 6, […]
evidence of KBU2046 binding to either HSP90β or CDC37 (data not shown). For DARTS assay, HSP90β or CDC37 were individually pre-incubated with KBU2046, thermolysin added, and reaction products were separated by SDS PAGE and visualized by silver stain (depicted above).
NTco – no thermolysin control. However, when the DARTS assay was conducted with both HSP90β and CDC37 present, KBU2046 protected both proteins from degradation in a concentration-dependent manner (see manuscript Fig 5A).
(also on this page, place not known: HSP90 Ntco 0 0.001 0.01 0.1 1.0 10 µM KBU2046, thermolysin NTco thermolysin CDC37)
(1 picture or pasted object on this page, not shown here)

T1 sequence (Q16543 whole entry): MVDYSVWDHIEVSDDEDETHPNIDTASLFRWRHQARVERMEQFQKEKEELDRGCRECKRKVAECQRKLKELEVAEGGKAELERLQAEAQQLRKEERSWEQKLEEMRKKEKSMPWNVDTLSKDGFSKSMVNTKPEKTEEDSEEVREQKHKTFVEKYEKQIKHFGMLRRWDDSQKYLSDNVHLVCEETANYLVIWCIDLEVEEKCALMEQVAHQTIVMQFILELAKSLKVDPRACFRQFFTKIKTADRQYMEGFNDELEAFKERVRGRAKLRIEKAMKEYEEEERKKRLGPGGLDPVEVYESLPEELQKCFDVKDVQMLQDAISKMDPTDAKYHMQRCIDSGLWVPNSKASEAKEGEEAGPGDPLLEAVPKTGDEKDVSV

O=C1c2ccccc2OCC1c1ccc(F)cc1 (racemic) [KBU2046, (±)-3(4-fluorophenyl)chroman-4-one]
inhibition of ATP binding (200 different kinases): completely negative
CK2 phosphorylation of S226 on HSP90β (CK2): does not inhibit
binding to CDC37 (CDC37): no evidence of KBU2046 binding
